The results in this text go back to patent publication US10766888B1, “HMOX1 inducers” (Mitobridge Inc., priority 2019, dated 2020).

In brackets after ≈: the same amount, converted by molar mass. Where a name gives a salt, the structure may show the parent alone.

The subject of the first data set is Human Heme Oxygenase-1 (HMOX-1). Put plainly: ELISA assay to measure human heme oxygenase-1 (HMOX-1) in HepG2 lysate. Type of data set: cell-based. The settings on record: human HMOX1 protein level in HepG2 lysate; * = average of 2 or more EC50 determinations; NA = Not Active; read-out: EC50. The method, then:
Example 143. ELISA Assay to Measure Human Heme Oxygenase-1 (HMOX-1) in HepG2 lysate
Reagents and Technical Notes:
ELISA capture antibody, standard HO-1, detection antibody and streptavidin HRP were supplied in the DuoSet IC Human total HO-1 ELISA from R&D systems (DYC3776-2). The substrate cocktail was KPL LumiGLO reserve Chemiluminescent Substrate (54-71-00). PBS was Corning Cellgro Cell Culture (21-040-CV). 10×PBS+0.05% tween20 (PBST) was from KPL.
All incubations of the plate were at room temperature (20° C.) in a closed drawer.
The ELISA plate was processed manually. All loadings were with a multichannel pipet. Plates were emptied by shaking into the sink and tapping onto paper towels to remove any remaining reagent. Plate washing was accomplished by loading all wells with PBS+0.05% tween20 (PBST) using a squirt bottle, shaking the PBST out and tapping the plate onto paper towels.
Preparation of the ELISA Plate:
• 1. anti-HO-1 capture antibody was 1440 μg/ml after reconstitution in PBS. This antibody was diluted to 8 μg/ml in PBS and 50 μl per well was added to a 384 well greiner “lumitrac 200” plate. Incubated overnight. • 2. The plate was emptied and 100 μl PBS+1% BSA added to all wells. Incubated 90 minutes at room temperature. Preparation of HepG2 Lysate: • 1. Cells were cultured in a 96-well tissue culture plate washed with PBS and then the plate frozen at −70° C. overnight. Plates were allowed to warm to ice temperature in an ice bucket. 20 μl of PBS, 0.5% Triton X100, 1 mM EDTA with 1×HALT™ protease inhibitors was added to each well and the plates incubated on ice for 1 hour. • 2. The lysates were frozen at −20° C. overnight. Measurement of HMOX1 (“HO-1”) • 1. In a polypropylene 384 well plate, human HO-1 (after reconstitution in PBS+0.5% Triton+1 mM EDTA) was serially diluted from 20 ng/ml 2-fold in PBS+0.5% triton-X100, 1 mM EDTA to make a 12-point standard curve including a zero point. • 2. In a polypropylene 96 well plate, HepG2 lysate was diluted 1 to 20 in Diluent #4 from DUOSET kit in which the assay standard is also diluted. • 3. The PBS+1% BSA was emptied from the ELISA plate and 30 μl of all samples and standards were added (duplicates recommended). The plate was incubated 90 minutes. • 4. Emptied plate and washed 4 times with PBST. • 5. Diluted HO-1 detection antibody to 200 ng/ml in PBS+1% BSA and added 30 μl to all wells. Incubated 90 minutes. • 6. Emptied plate and washed 4 times with PBST. • 7. Added 30 μl streptavidin HRP at 1/200 in PBS+1% BSA (stock streptavidin concentration not specified) to all wells. Incubated 30 minutes. • 8. Emptied plate and washed 4 times with PBST. • 9. Diluted Lumiglo reserve reagent two parts buffer to one part lumiglo substrate. Added 30 μl to all wells. Incubated 5 minutes. • 10. Measured chemiluminescence on spectramax M5 using 150 ms integration.
Table 1 below lists EC50 and fold changes of human HMOX1 protein levels relative to DMSO control upon treatment with representative compounds.
In the case of `CC(C)C(N)C(=O)OCCOCCNC(=O)c1ccc2c(c1)nc(Nc1nc3ccccc3o1)n2C.Cl` (racemic) [Example 30, 2-(2-(2-(benzo[d]oxazol-2-ylamino)-1-methyl-1H-benzo[d]imidazole-5-carboxamido)ethoxy)ethyl DL-valinate hydrochloride], the EC50 was 3.5 µM.

As to `CCn1c(Nc2nc3ccc(OC(F)(F)F)cc3o2)nc2cc(C(=O)NCCOC)ccc21` [Example 85, 1-ethyl-N-(2-methoxyethyl)-2-((6-(trifluoromethoxy)benzo[d]oxazol-2-yl)amino)-1H-benzo[d]imidazole-5-carboxamide], the EC50 was found to be 1.3 µM.

As for `O=C(O)c1ccc2c(c1)nc(Nc1nc3ccc(OC(F)(F)F)cc3o1)n2CC1CCOC1` (stereo not drawn) [Example 87, 1-((tetrahydrofuran-3-yl)methyl)-2-((6-(trifluoromethoxy)-benzo[d]oxazol-2-yl)amino)-1H-benzo[d]imidazole-5-carboxylic acid], the EC50 amounted to 6.8 µM.

Turning to `COCCNC(=O)c1ccc2c(c1)nc(Nc1nc3ccc(OC(F)(F)F)cc3o1)n2CC1CCOC1` (stereo not drawn) [Example 88, N-(2-methoxyethyl)-1-((tetrahydrofuran-3-yl)methyl)-2-((6-(trifluoromethoxy)benzo[d]oxazol-2-yl)amino)-1H-benzo[d]imidazole-5-carboxamide], the 50% effective concentration (EC50) amounted to 1.5 µM.

Turning to `COCCNC(=O)c1ccc2c(c1)nc(Nc1nc3ccc(OC(F)(F)F)cc3o1)n2CCS(C)(=O)=O` [Example 90, N-(2-methoxyethyl)-1-(2-(methylsulfonyl)ethyl)-2-((6-(trifluoromethoxy)benzo[d]oxazol-2-yl)amino)-1H-benzo[d]imidazole-5-carboxamide], the EC50 amounted to 4.8 µM.

For the compound `O=C(NCCO)c1ccc2c(c1)nc(Nc1nc3ccc(OC(F)(F)F)cc3o1)n2CC1(O)COC1` [Example 95, N-(2-hydroxyethyl)-1-((3-hydroxyoxetan-3-yl)methyl)-2-((6-(trifluoromethoxy)benzo[d]oxazol-2-yl)amino)-1H-benzo[d]imidazole-5-carboxamide], the EC50 was 1.6 µM.

On to `Cn1c(Nc2nc3ccc(Cl)cc3o2)nc2cc(C(=O)O)ccc21` [Example 96, 2-((6-chlorobenzo[d]oxazol-2-yl)amino)-1-methyl-1H-benzo[d]imidazole-5-carboxylic acid], for which the concentration giving a half-maximal response (EC50) turned out to be 2.8 µM.

Consider `Cn1c(Nc2nc3ccc(OCC(F)(F)F)cc3o2)nc2cc(C(=O)O)ccc21` [Example 98, 1-methyl-2-((6-(2,2,2-trifluoroethoxy)benzo[d]oxazol-2-yl)amino)-1H-benzo[d]imidazole-5-carboxylic acid], for which the EC50 turned out to be 4.1 µM.

Take `Cn1c(Nc2nc3ccc(OCCO)cc3o2)nc2cc(C(=O)NCCN)ccc21` [Example 105, N-(2-aminoethyl)-2-((6-(2-hydroxyethoxy)benzo[d]oxazol-2-yl)amino)-1-methyl-1H-benzo[d]imidazole-5-carboxamide hydrochloride]: the EC50 amounted to 4.1 µM.

As to `Cn1c(Nc2nc3cc(F)c(C(F)(F)F)cc3o2)nc2cc(C(=O)O)ccc21` [Example 107, 2-((5-fluoro-6-(trifluoromethyl)benzo[d]oxazol-2-yl)amino)-1-methyl-1H-benzo[d]imidazole-5-carboxylic acid], the concentration for a half-maximal effect (EC50) turned out to be 4.5 µM.

On to `Cn1c(Nc2nc3ccc(C4CC4)cc3o2)nc2cc(C(=O)O)ccc21` [Example 115, 2-((6-cyclopropylbenzo[d]oxazol-2-yl)amino)-1-methyl-1H-benzo[d]imidazole-5-carboxylic acid], for which the EC50 amounted to 6.2 µM.

On to `COCCNC(=O)c1ccc2c(c1)nc(Nc1nc3ccc(C4CC4)cc3o1)n2C` [Example 116, 2-((6-cyclopropylbenzo[d]oxazol-2-yl)amino)-N-(2-methoxyethyl)-1-methyl-1H-benzo[d]imidazole-5-carboxamide], for which the half-maximal effective concentration (EC50) turned out to be 3 µM.

On to `Cn1c(Nc2nc3cc(C(=O)NCCOCCO)ccc3o2)nc2ccccc21` [Example 118, N-(2-(2-hydroxyethoxy)ethyl)-2-((1-methyl-1H-benzo[d]imidazol-2-yl)amino)benzo[d]oxazole-5-carboxamide], for which the EC50 was 8 µM.

Take `Cn1c(Nc2nc3ccc(OC4CCOCC4)cc3o2)nc2cc(C(=O)NCCOCCO)ccc21` [Example 138, N-(2-(2-hydroxyethoxy)ethyl)-1-methyl-2-((6-((tetrahydro-2H-pyran-4-yl)oxy)benzo[d]oxazol-2-yl)amino)-1H-benzo[d]imidazole-5-carboxamide]: the EC50 was 2 µM.

As for `Cn1c(Nc2nc3ccccc3o2)nc2cc(C(O)C(F)(F)F)ccc21` (stereo not drawn) [Example 142, 1-(2-(benzo[d]oxazol-2-ylamino)-1-methyl-1H-benzo[d]imidazol-5-yl)-2,2,2-trifluoroethan-1-ol], the concentration giving a half-maximal response (EC50) was determined as 3.3 µM.

System in another data set: not listed separately
Put plainly: Kinetic solubility. It is filed as physicochemical. The settings on record: Dulbecco's phosphate buffer saline (DPBS), aqueous buffer, kinetic from dmso stock, DPBS pH 7.4, 25° C., 200 μM test compound. On the procedure:
Example 144. Kinetic Solubility
10 μL of 10 mM DMSO stock solution were aliquotted to 490 μL of DMSO solution and separately 490 μL of Dulbecco's phosphate buffer saline, DPBS, pH 7.4 solution in 1.2 mL 96-well plates in duplicate. Final concentration was 200 μM of the test compound. Samples were incubated at 25° C. with shaking at 200 rpm for 16 h. Samples were centrifuged at 3500 rpm for 20 min at 25° C., and supernatant was submitted for HPLC analysis.
Kinetic solubility was measured using the following equation: […]
Consider `CC(C)C(N)C(=O)OCCOCCNC(=O)c1ccc2c(c1)nc(Nc1nc3ccccc3o1)n2C.Cl` (racemic) [Example 30, 2-(2-(2-(benzo[d]oxazol-2-ylamino)-1-methyl-1H-benzo[d]imidazole-5-carboxamido)ethoxy)ethyl DL-valinate hydrochloride], for which the solubility at 16 h was determined as 3.2 µM.

As to `CC(=O)N1CCc2nc(Nc3nc4cc(C(=O)NCCOCCO)ccc4n3C)sc2C1` [Example 10, 2-((5-acetyl-4,5,6,7-tetrahydrothiazolo[5,4-c]pyridin-2-yl)amino)-N-(2-(2-hydroxyethoxy)ethyl)-1-methyl-1H-benzo[d]imidazole-5-carboxamide], the solubility at 16 h came out at 8.6 µM (≈ 3.94 µg/mL).

Compound `Cn1c(Nc2nc3ccccc3o2)nc2cc(C(=O)NCC(O)CO)ccc21` (stereo not drawn) [Example 24, 2-(benzo[d]oxazol-2-ylamino)-N-(2,3-dihydroxypropyl)-1-methyl-1H-benzo[d]imidazole-5-carboxamide] had a solubility at 16 h of 12.4 µM (≈ 4.73 µg/mL).

On to `Cn1c(Nc2nc3ccccc3o2)nc2cc(C(=O)NCCOCC(C)(C)O)ccc21` [Example 27, 2-(benzo[d]oxazol-2-ylamino)-N-(2-(2-hydroxy-2-methylpropoxy)ethyl)-1-methyl-1H-benzo[d]imidazole-5-carboxamide], for which the solubility at 16 h is 10.6 µM (≈ 4.49 µg/mL).

For `Cn1c(Nc2nc3ccccc3o2)nc2cc(C(=O)NCCOCC(=O)O)ccc21` [Example 29, 2-(2-(2-(benzo[d]oxazol-2-ylamino)-1-methyl-1H-benzo[d]imidazole-5-carboxamido)ethoxy)acetic acid], the solubility at 16 h stood at 19.3 µM (≈ 7.9 µg/mL).

As for `Cn1c(Nc2nc3ccc(C(F)(F)F)cc3o2)nc2cc(C(=O)NCCN3CCCCC3)ccc21` [Example 37, 1-methyl-N-(2-(piperidin-1-yl)ethyl)-2-((6-(trifluoromethyl)benzo[d]oxazol-2-yl)amino)-1H-benzo[d]imidazole-5-carboxamide], the solubility at 16 h was under 2 µM.

Compound `Cn1cc(NC(=O)c2ccc3c(c2)nc(Nc2nc4ccc(OC(F)(F)F)cc4o2)n3C)cn1` [Example 50, 1-methyl-N-(1-methyl-1H-pyrazol-4-yl)-2-((6-(trifluoromethoxy)benzo[d]oxazol-2-yl)amino)-1H-benzo[d]imidazole-5-carboxamide] gave a solubility at 16 h of 4 µM (≈ 1.89 µg/mL).

For `Cn1c(Nc2nc3ccc(C(F)(F)F)nc3o2)nc2cc(C(=O)NCCO)ccc21` [Example 113, N-(2-hydroxyethyl)-1-methyl-2-((5-(trifluoromethyl)oxazolo[5,4-b]pyridin-2-yl)amino)-1H-benzo[d]imidazole-5-carboxamide], the solubility at 16 h stood at 9.1 µM (≈ 3.83 µg/mL).

Turning to `Cn1c(Nc2nc3nccnc3s2)nc2cc(C(=O)NCCOCCO)ccc21` [Example 114, N-(2-(2-hydroxyethoxy)ethyl)-1-methyl-2-(thiazolo[4,5-b]pyrazin-2-ylamino)-1H-benzo[d]imidazole-5-carboxamide], the solubility at 16 h was determined as 12.2 µM (≈ 5.04 µg/mL).
